Assay results as given in patent publication US10858305B2, “Perillyl alcohol-3-bromopyruvate conjugate and methods of treating cancer” (NeOnc Technologies, Inc., priority 2016, dated 2020).
Entries after “also recorded” stand apart in the source; their conditions may differ. Where two headings read alike, the source gives them in different places.

Tests used:
[1] = system: tumor cells (two cell lines, incl. MCF7/Dox); experiment: Colony formation assay (CFA), 24 hours drug exposure (FIG. 5); format: cell-based, human; conditions: colonies after ten to fifteen days
Experimental: The effect of NEO218 on tumor cell survival and colony formation relative to 3-BP, POH and 3-BP+POH was evaluated via the colony formation assay (CFA). Six hundred cells per culture well were seeded and exposed to increasing concentrations of NEO218, 3-BP, a mix of 3-BP+POH, or POH alone. After 24 hours, all drugs were removed from cells and fresh culture medium was added. Ten to fifteen days later, the surviving cells had formed colonies of descendants, which were stained and counted.

[2] = system: MDA-MB-231 breast cancer cells; experiment: LDH release assay in MDA-MB-231 / breast cancer cell lines; format: cell-based, human
Experimental: (A) MTT assay was performed after 24 hours. […] (B) LDH assay was performed after […]. LDH release by untreated cells was set to 1. Relative fold increase is shown (n=3).
(A) MTT assay was performed after 24 hours. Viability of untreated cells was set at 100% (data points are averages of 2 experiments). (B) LDH assay was performed after 24 hours. LDH release by untreated cells was set to 1. Relative fold increase is shown (averages from 2 experiments). (C) Representative photos show typical colony formation after initial 48 hours of drug treatment. In all cases of combination treatment with 3-BP mixed with […] (3-BP+POH), the indicated concentrations refer to each individual drugs, i.e., 100 μM 3-BP+POH means that 100 μM 3-BP was combined with 100 μM POH.
The capacity for rapid cell killing by NEO218 relative to 3-BP, POH and 3-BP+POH was evaluated via LDH assay, where LDH release is used as a proxy for cell death.
In FIG. 4, Panels (a) and (b), show the results of treating breast cancer cell lines with increasing concentrations of NEO218, 3-BP, or 3-BP mixed with POH. […] In all cases a-d, the release of LDH (as a marker of cell death) was measured after 24 hours.
Depending on the cell line, 2000 to 4000 cells per well were seeded in a volume of 50 μL into a 96-well plate. The next day, drugs ere added in an additional 50 μL of medium. At different time points (usually after 24 hours of incubation), 50 μL medium was removed and processed with the LDH Cytotoxicity Assay Kit (Thermo Fisher Scientific, Waltham, Mass.) according to the manufacturer's instructions. This kit measures extracellular LDH in culture medium using an enzymatic reaction that results in a red formazan product, which can be measured spectrophotometrically. The absorbance was measured at 490 and 680 nm. All LDH levels were normalized to untreated controls and presented as fold change of the controls.

GAPDH = biological target: T1, GAPDH (Oryctolagus cuniculus, UniProt P46406); experiment: Mass spectrometry of purified GAPDH protein incubated with drug (cysteine modification); format: binding, rabbit; conditions: 60 μM drug, 15 minutes
T1 construct: Purified GAPDH protein (30 μg, 1 μg/μl) from rabbit muscle (ScienCell Research Laboratories); purchased ScienCell Research Laboratories; host or cells: rabbit muscle
Experimental: Direct interaction of NEO218 with different targets was analyzed by LC/MS analysis. (A) Purified rabbit GAPDH protein was incubated with 3-BP or NEO218 for 15 minutes, followed by LC/MS analysis. GAPDH protein contains 4 cysteines (Cys) at the indicated positions, and all four were identified as being modified with a pyruvate moiety in the case of 3-BP, and a pyruvate-perillyl alcohol moiety in the case of NEO218 (indicated by pyr). (B) Extracted ion chromatogram (XIC) of the reaction products of NEO218 and GSH restricted to mass over charge (m/z) values between 528 and 529. […] Location and relative size of the peak at 529.204 corresponds to the ^13C isotope peak of the reaction product. (C) Reaction of NAC with NEO218 yielded several products shown in the ion map (top panel). The co-eluting twin isotope at m/z 539 and 541 distributed equally (insert in top panel) and was selected for further analysis, as shown in the two chromatograms in the bottom panels.
Thirty microgram of purified GAPDH protein was incubated in vitro with 60 μM 3-BP for 15 minutes at 37° C. Mass spectrometrical analysis was then used to determine whether 3-BP could directly bind to the amino acid sequence of the enzyme. […]

tumor cells = experiment: Cytotoxicity in the presence of necroptosis inhibitor necrostatin-1; format: cell-based; conditions: data not shown
From the text: All our data are highly consistent and point to necrosis as the overwhelmingly dominant mechanism of cell death by both 3-BP and NEO218 in our cell systems, as supported by the following observations: (i) A pan-caspase inhibitor exerted no influence on the cytotoxic IC50 of 3-BP or NEO218 (FIG. 21C). (ii) Several established protein markers of apoptosis show very little, if any, response to drug treatment (FIG. 21B). (iii) Loss of structural integrity of the plasma membrane is a hallmark of necrosis and can be documented via cellular uptake of membrane-impermeant dyes (such as propidium iodide, PI) or cellular leakage of cytosolic enzymes (such as lactate dehydrogenase, LDH). […] The loss of plasma membrane integrity is consistent with cell death induced by the severe ATP depletion observed by us (FIG. 22) and reported by others, because maintenance of the cytoplasmic transmembrane electrochemical gradients is highly energy dependent, and their loss inevitably leads to cell swelling and membrane rupture (i.e., necrosis). (iv) Rapid cell death is another characteristic of necrotic cell death. We detected PI positivity and LDH release within the first 2 hours of drug exposure (see FIG. 21A for PI; time course not shown for LDH). […] Cells were treated with 3-BP or NEO218 in the presence of necrostatin-1 (Nec-1), a commonly used inhibitor of necroptosis.

[3] = system: MCF7, 231, T47D, BTB-12, ME16C, 468, HCT116 cells; experiment: MTT cytotoxic IC50 aligned with MCT1 expression levels (FIG. 14); conditions: Homo sapiens
Experimental: The expression levels of MCT1 in different tumor cell lines were determined by Western blot analysis and correlated with cytotoxic IC50 values in response of treatment of the same cells with NEO218 or 3-BP generated by MTT assay.

T1 sequence (P46406 whole entry): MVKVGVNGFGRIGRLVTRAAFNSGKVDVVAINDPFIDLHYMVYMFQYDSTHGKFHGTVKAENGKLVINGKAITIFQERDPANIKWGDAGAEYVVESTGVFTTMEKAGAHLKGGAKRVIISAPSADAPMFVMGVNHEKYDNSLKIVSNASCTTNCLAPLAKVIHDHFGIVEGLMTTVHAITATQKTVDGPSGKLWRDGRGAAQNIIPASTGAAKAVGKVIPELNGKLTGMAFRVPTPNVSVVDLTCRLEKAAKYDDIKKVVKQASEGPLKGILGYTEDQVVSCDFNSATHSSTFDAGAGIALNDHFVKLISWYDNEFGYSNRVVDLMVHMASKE

Compound	IC50 ([1]; Homo sapiens, MCF7-DOX, read-out: IC50 (cell survival and colony formation)) [µM]	earliest detection of cytotoxic effects (LDH release) after onset of drug treatment ([2]; MDA-MB-231, time course) [h]	time at which half-maximal extent of cell death is reached ([2]; MDA-MB-231, time course of LDH release) [h]	cysteine residues of GAPDH modified (GAPDH)	effect of necrostatin-1 on drug-induced cytotoxic outcome (tumor cells)	IC50 ([3]; read-out: cytotoxic IC50) [µM]	inhibition of colony formation, comparison [1]	EC50 ([2]; Homo sapiens, MDA-MB-231, 16 hours, read-out: effective concentration (half-maximal), LDH assay) [µM]	IC50 ([3]; HCT-116, read-out: cytotoxic IC50) [µM]
C=C(C)[C@@H]1CC=C(COC(=O)C(=O)CBr)CC1 [NEO218, 3-bromo-2-oxo-propionic acid 4-isopropenyl-cyclohex-1-enylmethyl ester]	< 10	1	< 8	the same four residues revealed attachment of pyruvate-perillyl alcohol moieties	no impact of Nec-1 on drug-induced cytotoxic outcome could be detected	< 35	–	–	–
O=C(O)C(=O)CBr [3-BP, 3-bromopyruvate]	–	–	–	Cysteines at amino acid positions 245 and 282 turned out to be pyruvylated; also recorded: all 4 cysteines were altered by the addition of pyruvate	no impact of Nec-1 on drug-induced cytotoxic outcome could be detected	> 300	substantially less potent	~350	< 100
